ChEMBL document CHEMBL1201862, “PubChem BioAssay data set” (2004)
Calls of active or inactive are those of the source.

Key:
[1] = tested on: HEK293; experiment: NOD2 signaling inhibitors in MDP-stimulated cells, cell-based, uHTS, luminescence (AID 2001); assay type: functional; settings: Homo sapiens
[2] = tested on: HEK293; experiment: cells; assay type: functional, cell-based; settings: Homo sapiens
[3] = biological target: Nucleotide-binding oligomerization domain-containing protein 2 (Homo sapiens, UniProt Q9HC29); experiment: NOD2 signaling inhibitors, cell-based, luminescence, uHTS, HEK293 (AID 1566); assay type: functional
Chain of Nucleotide-binding oligomerization domain-containing protein 2 (Q9HC29 whole entry, the tested form may be a part): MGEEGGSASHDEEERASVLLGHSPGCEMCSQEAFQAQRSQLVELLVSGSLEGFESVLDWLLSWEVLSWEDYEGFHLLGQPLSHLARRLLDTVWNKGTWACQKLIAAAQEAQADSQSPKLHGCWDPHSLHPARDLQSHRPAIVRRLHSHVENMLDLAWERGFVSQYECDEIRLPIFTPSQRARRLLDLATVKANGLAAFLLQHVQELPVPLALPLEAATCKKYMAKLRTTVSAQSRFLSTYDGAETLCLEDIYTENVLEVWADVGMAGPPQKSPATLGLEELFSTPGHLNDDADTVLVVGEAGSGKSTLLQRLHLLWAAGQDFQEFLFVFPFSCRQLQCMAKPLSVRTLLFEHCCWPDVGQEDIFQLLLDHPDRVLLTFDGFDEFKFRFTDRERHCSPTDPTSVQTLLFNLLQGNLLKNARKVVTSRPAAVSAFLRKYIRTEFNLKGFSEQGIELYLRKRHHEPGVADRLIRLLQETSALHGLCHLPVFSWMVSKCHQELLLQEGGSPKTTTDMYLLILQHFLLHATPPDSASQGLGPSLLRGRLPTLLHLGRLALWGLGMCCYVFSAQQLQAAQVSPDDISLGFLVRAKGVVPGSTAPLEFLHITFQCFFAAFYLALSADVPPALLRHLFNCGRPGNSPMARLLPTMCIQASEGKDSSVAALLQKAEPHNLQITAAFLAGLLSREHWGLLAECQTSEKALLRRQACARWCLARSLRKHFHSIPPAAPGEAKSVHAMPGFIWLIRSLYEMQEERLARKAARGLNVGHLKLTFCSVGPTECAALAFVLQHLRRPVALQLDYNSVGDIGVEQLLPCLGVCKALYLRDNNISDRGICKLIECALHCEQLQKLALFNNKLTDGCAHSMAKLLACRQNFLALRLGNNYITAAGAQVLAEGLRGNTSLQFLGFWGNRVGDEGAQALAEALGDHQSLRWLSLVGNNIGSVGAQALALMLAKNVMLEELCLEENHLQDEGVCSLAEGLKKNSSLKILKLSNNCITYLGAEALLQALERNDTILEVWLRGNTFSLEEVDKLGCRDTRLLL

[4] = tested on: HEK293; experiment: cells; assay type: functional, cell-based; settings: Homo sapiens; remark: listed apart in the source
[5] = tested on: HEK293; experiment: cells; assay type: functional, cell-based; settings: Homo sapiens; remark: listed apart in the source
[6] = tested on: HEK293; experiment: NOD1 signaling inhibitors, primary screen, cell-based, luminescence, uHTS (AID 1578); assay type: functional; settings: Homo sapiens
[7] = biological target: DNA dC->dU-editing enzyme APOBEC-3G (Homo sapiens, UniProt Q9HC16); assay type: functional;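 further: Dose-response counterscreen measuring inhibition of APOBEC3G DNA deaminase activity, run while confirming APOBEC3A inhibitors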
Chain of DNA dC->dU-editing enzyme APOBEC-3G (Q9HC16 whole entry): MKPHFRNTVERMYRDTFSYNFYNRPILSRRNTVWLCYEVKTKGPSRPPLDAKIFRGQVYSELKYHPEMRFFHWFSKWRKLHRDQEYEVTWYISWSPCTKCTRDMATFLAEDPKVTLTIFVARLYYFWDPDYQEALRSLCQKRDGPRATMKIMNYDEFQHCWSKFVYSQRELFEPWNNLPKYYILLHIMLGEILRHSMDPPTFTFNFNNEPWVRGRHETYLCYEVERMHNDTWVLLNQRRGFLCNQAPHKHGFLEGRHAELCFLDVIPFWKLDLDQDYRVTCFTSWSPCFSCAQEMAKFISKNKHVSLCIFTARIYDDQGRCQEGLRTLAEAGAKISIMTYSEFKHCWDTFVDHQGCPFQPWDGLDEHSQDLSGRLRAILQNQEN

[8] = biological target: DNA dC->dU-editing enzyme APOBEC-3A (Homo sapiens, UniProt P31941); experiment: Dose Response confirmation of small molecule APOBEC3A DNA Deaminase Inhibitors via a fluorescence-based single-stranded DNA deaminase assay. [Related pubchem assays (depositor defined):AID493011, AID493024]; assay type: functional
Chain of DNA dC->dU-editing enzyme APOBEC-3A (P31941 whole entry): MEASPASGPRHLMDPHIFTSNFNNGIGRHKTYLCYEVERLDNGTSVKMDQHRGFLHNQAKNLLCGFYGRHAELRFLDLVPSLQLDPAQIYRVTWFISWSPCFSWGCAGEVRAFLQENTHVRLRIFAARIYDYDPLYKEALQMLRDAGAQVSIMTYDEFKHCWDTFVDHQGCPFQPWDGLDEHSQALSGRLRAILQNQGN

[9] = biological target: T1, Short transient receptor potential channel 4 (Mus musculus, UniProt Q9QUQ5); experiment: mouse TRPC4 channel inhibitors, dose response, cell-based, HEK293 TRPC4/mu-opioid, Fluo-4 calcium (AID 434942); assay type: functional;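 further: potency of inhibitors blocking the TRPC4 calcium response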
T1 sequence (Q9QUQ5 whole entry): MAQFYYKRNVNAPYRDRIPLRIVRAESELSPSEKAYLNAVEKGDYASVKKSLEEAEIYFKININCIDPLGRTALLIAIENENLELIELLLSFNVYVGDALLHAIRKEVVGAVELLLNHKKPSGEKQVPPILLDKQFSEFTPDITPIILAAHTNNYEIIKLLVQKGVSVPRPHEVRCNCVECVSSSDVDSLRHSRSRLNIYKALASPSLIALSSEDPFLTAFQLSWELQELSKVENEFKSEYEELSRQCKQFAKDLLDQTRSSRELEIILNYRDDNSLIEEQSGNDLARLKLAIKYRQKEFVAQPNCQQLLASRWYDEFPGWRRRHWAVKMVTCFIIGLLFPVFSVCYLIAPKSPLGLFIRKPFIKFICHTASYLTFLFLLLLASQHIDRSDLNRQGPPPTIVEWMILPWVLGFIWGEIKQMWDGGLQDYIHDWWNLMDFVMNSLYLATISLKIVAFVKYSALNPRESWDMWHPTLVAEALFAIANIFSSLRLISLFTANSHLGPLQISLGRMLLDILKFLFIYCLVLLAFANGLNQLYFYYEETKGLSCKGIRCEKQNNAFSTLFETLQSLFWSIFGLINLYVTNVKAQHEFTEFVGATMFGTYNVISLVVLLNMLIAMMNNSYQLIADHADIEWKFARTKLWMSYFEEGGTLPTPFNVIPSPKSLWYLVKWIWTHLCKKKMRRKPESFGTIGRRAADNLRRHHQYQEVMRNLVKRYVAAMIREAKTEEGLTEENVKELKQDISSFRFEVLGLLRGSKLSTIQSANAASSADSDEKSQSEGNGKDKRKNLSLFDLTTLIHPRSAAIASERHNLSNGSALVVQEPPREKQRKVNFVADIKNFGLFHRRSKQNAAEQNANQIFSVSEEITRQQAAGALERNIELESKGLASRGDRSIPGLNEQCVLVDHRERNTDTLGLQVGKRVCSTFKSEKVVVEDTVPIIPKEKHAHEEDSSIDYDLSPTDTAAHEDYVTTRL

[10] = biological target: T2, Aminopeptidase N (Plasmodium falciparum FcB1/Columbia, UniProt O96935); experiment: P. falciparum M1AAP inhibitors, biochemical, fluorogenic H-Leu-NHMec substrate, 1536-well (AID 1445); set-up: species or system Plasmodium falciparum 3D7, 3D7
T2 sequence (O96935 whole entry): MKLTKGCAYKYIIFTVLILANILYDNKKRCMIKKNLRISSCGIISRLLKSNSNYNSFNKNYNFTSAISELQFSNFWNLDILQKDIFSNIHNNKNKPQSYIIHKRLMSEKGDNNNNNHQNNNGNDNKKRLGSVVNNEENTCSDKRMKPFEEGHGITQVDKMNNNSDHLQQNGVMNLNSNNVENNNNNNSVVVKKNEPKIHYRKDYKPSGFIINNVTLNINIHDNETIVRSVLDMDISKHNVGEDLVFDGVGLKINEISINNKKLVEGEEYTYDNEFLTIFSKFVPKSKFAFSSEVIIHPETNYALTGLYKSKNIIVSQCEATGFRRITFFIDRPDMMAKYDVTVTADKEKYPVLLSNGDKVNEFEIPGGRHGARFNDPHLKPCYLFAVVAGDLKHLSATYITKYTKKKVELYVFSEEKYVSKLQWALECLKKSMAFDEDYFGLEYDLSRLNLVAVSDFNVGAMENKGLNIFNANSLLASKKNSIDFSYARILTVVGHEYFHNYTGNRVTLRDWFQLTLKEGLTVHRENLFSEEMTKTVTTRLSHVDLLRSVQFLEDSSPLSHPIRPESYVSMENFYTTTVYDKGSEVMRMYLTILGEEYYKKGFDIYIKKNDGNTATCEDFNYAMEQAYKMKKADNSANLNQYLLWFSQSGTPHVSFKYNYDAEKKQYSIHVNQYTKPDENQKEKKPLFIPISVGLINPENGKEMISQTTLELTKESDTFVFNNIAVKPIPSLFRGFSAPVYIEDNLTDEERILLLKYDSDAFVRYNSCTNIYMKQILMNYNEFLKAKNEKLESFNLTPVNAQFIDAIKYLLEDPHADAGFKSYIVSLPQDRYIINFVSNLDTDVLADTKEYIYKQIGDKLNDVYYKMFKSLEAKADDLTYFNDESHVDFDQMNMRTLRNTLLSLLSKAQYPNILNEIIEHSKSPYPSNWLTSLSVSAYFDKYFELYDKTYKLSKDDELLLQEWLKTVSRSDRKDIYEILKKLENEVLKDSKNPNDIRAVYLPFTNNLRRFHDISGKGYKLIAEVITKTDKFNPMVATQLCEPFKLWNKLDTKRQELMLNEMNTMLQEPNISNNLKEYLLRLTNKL

[11] = cytotoxicity toward NIH3T3 fibroblasts, dose response, counter-screen, cell-based, ATP luminescence, mouse fibroblasts (AID 2010); assay type: functional;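 further: cells exposed to compound for about 90 hours before reading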
[12] = inhibitors of intracellular T. cruzi replication, confirmation, NIH3T3 host cells, beta-gal luminescence (AID 2044); assay type: functional, cell-based;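 further: intracellular parasites grown in NIH/3T3 mouse fibroblasts as host cells; luminescent beta-galactosidase reporter signal from transgenic T. cruzi replicating inside host cells; inhibitors lower the luminescence signal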
[13] = HEp-2 cell cytotoxicity, dose response, cytotoxicity control for RSV inhibitor project, HTS (AID 2410); assay type: functional; settings: human respiratory syncytial virus
[14] = biological target: T3, Carboxy-terminal domain RNA polymerase II polypeptide A small phosphatase 1 (Homo sapiens, UniProt Q9GZU7); experiment: inhibitors of CTDSP1, concentration-response testing, biochemical assay, absorbance-based, actives from ultra-high-throughput screening (AID 540297); assay type: functional
T3 sequence (Q9GZU7 whole entry): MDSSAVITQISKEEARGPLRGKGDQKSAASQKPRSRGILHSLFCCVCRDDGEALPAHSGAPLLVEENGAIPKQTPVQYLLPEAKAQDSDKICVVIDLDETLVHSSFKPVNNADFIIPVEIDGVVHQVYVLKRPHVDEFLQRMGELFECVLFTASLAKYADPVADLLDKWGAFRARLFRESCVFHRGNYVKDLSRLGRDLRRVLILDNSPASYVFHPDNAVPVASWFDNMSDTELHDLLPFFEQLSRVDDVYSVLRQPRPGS

[15] = growth suppression of beta-catenin-knockout colon cells, dose response, cell-based, HCT116, human colon tumor (AID 1045); assay type: functional;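 further: HCT116 colon tumor cells with beta catenin knocked out; cells exposed to compound for 60 hours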
[16] = growth suppression of PTEN-null colon cells, dose response, cell-based, HCT116 PTEN knockout (AID 1047); assay type: functional;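 further: HCT116 colon tumor cells with PTEN knocked out; cells exposed to compound for 60 hours before readout; potency for loss of cell viability measured by luminescence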
[17] = tested on: Vero; experiment: cells; assay type: functional; settings: Chlorocebus sabaeus
[18] = biological target: T4, Polyadenylate-binding protein 1 (Homo sapiens, UniProt P11940); experiment: PABP1 MLLE–PAM2 binding inhibitor potency, dose response, biochemical, fluorescence polarization, FITC-PAM2 peptide (AID 602259); assay type: functional; settings: read-out: IC50_Mean
T4 sequence (P11940 whole entry): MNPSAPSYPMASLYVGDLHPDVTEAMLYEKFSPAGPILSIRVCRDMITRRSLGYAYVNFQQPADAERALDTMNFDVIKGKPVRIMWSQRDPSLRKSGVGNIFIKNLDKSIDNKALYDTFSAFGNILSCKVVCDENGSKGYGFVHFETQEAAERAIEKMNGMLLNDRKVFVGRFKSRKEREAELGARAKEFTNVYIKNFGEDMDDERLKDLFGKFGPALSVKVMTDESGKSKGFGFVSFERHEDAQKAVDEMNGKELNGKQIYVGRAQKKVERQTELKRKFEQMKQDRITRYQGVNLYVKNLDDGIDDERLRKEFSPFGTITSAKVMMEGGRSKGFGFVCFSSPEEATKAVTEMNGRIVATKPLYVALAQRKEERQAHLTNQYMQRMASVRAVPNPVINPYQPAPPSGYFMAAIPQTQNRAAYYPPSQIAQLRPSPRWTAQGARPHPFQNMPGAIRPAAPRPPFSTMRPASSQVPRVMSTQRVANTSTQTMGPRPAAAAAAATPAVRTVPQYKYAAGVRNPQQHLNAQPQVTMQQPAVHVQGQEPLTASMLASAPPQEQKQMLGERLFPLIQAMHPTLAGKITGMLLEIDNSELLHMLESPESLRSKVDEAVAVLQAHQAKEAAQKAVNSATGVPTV

[19] = biological target: T4, Polyadenylate-binding protein 1; experiment: PABP1 MLLE–PAM2 interaction inhibitors, dose response, miRNA deadenylation inhibitor project, biochemical, fluorescence polarization, Cy5-PAM2 peptide, secondary (AID 602260); assay type: functional; settings: read-out: IC50_Mean
[20] = biological target: T5, Leucine aminopeptidase (Plasmodium falciparum 3D7, UniProt Q8IL11); experiment: P. falciparum M17LAP inhibitors, primary screen, biochemical, fluorogenic H-Leu-NHMec substrate, 1536-well (AID 1619); assay type: functional
T5 sequence (Q8IL11 whole entry): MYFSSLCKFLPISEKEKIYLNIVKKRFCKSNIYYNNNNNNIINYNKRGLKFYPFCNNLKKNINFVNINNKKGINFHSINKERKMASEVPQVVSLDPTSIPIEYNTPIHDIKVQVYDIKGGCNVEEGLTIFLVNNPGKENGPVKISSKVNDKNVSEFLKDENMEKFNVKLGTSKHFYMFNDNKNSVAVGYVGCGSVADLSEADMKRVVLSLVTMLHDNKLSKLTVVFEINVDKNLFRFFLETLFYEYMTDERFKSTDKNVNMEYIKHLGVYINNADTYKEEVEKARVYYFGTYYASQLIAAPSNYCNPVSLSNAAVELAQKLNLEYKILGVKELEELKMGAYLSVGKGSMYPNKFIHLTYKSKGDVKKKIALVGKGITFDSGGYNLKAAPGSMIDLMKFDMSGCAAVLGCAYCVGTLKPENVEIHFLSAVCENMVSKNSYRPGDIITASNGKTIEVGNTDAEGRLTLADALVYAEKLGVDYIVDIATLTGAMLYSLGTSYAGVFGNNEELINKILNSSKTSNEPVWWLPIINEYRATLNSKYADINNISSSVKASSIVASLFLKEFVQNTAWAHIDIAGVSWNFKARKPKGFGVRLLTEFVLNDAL

[21] = tested on: HEK293; experiment: inhibitors of LMP1-driven NF-kB reporter, dose response, cell-based, HEK293, luciferase, cherry-pick (AID 588343); assay type: functional; settings: Homo sapiens

SMILES: CC(=O)c1cccc(NS(=O)(=O)c2ccc(NC(=O)N3CCCCC3)cc2)c1
- IC50 [1]: 11.3 µM (inactive)
- IC50 [2]: > 20 µM (inactive)
- EC50 [3]: 15.6 µM (active)
- IC50 [4]: 14.3 µM (active)
- IC50 [5]: > 20 µM (inactive)
- EC50 [6]: 3.33 µM (active)

SMILES: CCN1CCN(c2ccc(S(=O)(=O)N3CCCCC3)cc2NC(=O)Cc2ccccc2)CC1
- IC50 [7]: 5.57 µM (active)
- IC50 [8]: 3.97 µM (active)

SMILES: CSC1=NC2=C(CCCC2)C2(CCCCC2)N1
- EC50 [9]: 5.96 µM (active)

SMILES: O=C(O)c1ccc2c(c1)C1C=CCC1C(c1cc3c(cc1Br)OCO3)N2 (centres undefined)
- IC50 [10]: 11 µM (active)

SMILES: Cc1cccc(N2CCN(C(=O)CCCCCn3c(=S)[nH]c4ccc(N5CCOCC5)cc4c3=O)CC2)c1C
- EC50 [11]: > 60 µM (not active)
- EC50 [12]: 1.56 µM (active)
- IC50 [1]: 11.9 µM (inactive)
- CC50 [13]: 26.4 µM (active)
- IC50 [2]: > 20 µM (inactive)
- EC50 [3]: 11.9 µM (active)
- IC50 [4]: > 20 µM (inactive)
- IC50 [5]: > 20 µM (inactive)
- EC50 [6]: 15.1 µM (active)

SMILES: N#C/C(=C/c1ccc(OCc2ccc(C(=O)O)cc2)cc1)C(=O)Nc1ccccc1
- IC50 [7]: 2.36 µM (active)
- IC50 [8]: 1.75 µM (active)
- IC50 [14]: 5.32 µM (active)

SMILES: O=C(CN1CCCCC1)N=Nc1c(O)[nH]c2ccccc12
- EC50 [9]: 2.99 µM (active)

SMILES: Cn1cccc1/C=C1\SC(=S)N(NC(=O)c2ccccc2O)C1=O
- IC50 [10]: 44.6 µM (active)

SMILES: O=[N+]([O-])CC(c1ccc(Br)cc1)c1c(O)n[nH]c1-c1ccccc1O (centres undefined)
- EC50 [15]: 6.72 µM (active)
- CC50 [13]: 10.3 µM (active)
- EC50 [16]: 9 µM (active)
- CC50 [17]: 14.2 µM (active)

SMILES: Cc1ccc(S(=O)(=O)CCSc2cccc(C(=O)Nc3ccccc3C(=O)O)c2)cc1
- IC50 [10]: 34.3 µM (active)
- CC50 [13]: 13.5 µM (active)
- IC50 [18]: > 66 µM (inactive)
- IC50 [19]: > 66 µM (inactive)
- IC50 [20]: 9.59 µM (active)

SMILES: CCn1c2ccccc2c2cc(/C=C(/C#N)C(N)=S)ccc21
- AC50 [21]: 1.21 µM (active)
